In ChEMBL document CHEMBL2439971, “Design, synthesis and antiproliferative evaluation of fluorenone analogs with DNA topoisomerase I inhibitory properties” (Bioorg Med Chem, 2013):
Calls of active or inactive are those of the source. No cut-off for these calls is given here.

Assays:
COLO 205 = assay: Cytotoxicity against human COLO205 cells at 10 uM after 48 hrs by sulforhodamine B assay relative to control; type: functional
KM12 = assay: Cytotoxicity against human KM12 cells at 10 uM after 48 hrs by sulforhodamine B assay relative to control; type: functional
SW-620 = assay: Cytotoxicity against human SW620 cells at 10 uM after 48 hrs by sulforhodamine B assay relative to control; type: functional
RXF 393 = assay: Cytotoxicity against human RXF393 cells at 10 uM after 48 hrs by sulforhodamine B assay relative to control; type: functional
PC-3 [1] = assay: Cytotoxicity against human PC3 cells after 48 hrs by sulforhodamine B assay; type: functional, cell-based; details: PC-3, 48 h
RPMI-8226 = assay: Cytotoxicity against human RPMI8226 cells at 10 uM after 48 hrs by sulforhodamine B assay relative to control; type: functional
CCRF-CEM = assay: Cytotoxicity against human CCRF-CEM cells at 10 uM after 48 hrs by sulforhodamine B assay relative to control; type: functional
DU-145 = assay: Cytotoxicity against human DU145 cells at 10 uM after 48 hrs by sulforhodamine B assay relative to control; type: functional
A549 = assay: Cytotoxicity against human A549 cells at 10 uM after 48 hrs by sulforhodamine B assay relative to control; type: functional
ACHN = assay: Cytotoxicity against human ACHN cells at 10 uM after 48 hrs by sulforhodamine B assay relative to control; type: functional
HOP-62 = assay: Cytotoxicity against human HOP62 cells at 10 uM after 48 hrs by sulforhodamine B assay relative to control; type: functional
A498 = assay: Cytotoxicity against human A498 cells at 10 uM after 48 hrs by sulforhodamine B assay relative to control; type: functional
T47D = assay: Cytotoxicity against human T47D cells at 10 uM after 48 hrs by sulforhodamine B assay relative to control; type: functional
Homo sapiens = species: Homo sapiens; assay: Inhibition of telomerase (unknown origin) at 10 uM TRAP assay
OVCAR-8 = assay: Cytotoxicity against human OVCAR8 cells at 10 uM after 48 hrs by sulforhodamine B assay relative to control; type: functional
NCI/ADR-RES = assay: Cytotoxicity against human NCI/ADR-RES cells at 10 uM after 48 hrs by sulforhodamine B assay relative to control; type: functional
OVCAR-5 = assay: Cytotoxicity against human OVCAR5 cells at 10 uM after 48 hrs by sulforhodamine B assay relative to control; type: functional
SN12C = assay: Cytotoxicity against human SN12C cells at 10 uM after 48 hrs by sulforhodamine B assay relative to control; type: functional
MDA-MB-231 = assay: Cytotoxicity against human MDA-MB-231 cells at 10 uM after 48 hrs by sulforhodamine B assay relative to control; type: functional
NCI-H522 = assay: Cytotoxicity against human NCI-H522 cells at 10 uM after 48 hrs by sulforhodamine B assay relative to control; type: functional
UACC-257 = assay: Cytotoxicity against human UACC257 cells at 10 uM after 48 hrs by sulforhodamine B assay relative to control; type: functional
SK-MEL-5 = assay: Cytotoxicity against human SK-MEL-5 cells at 10 uM after 48 hrs by sulforhodamine B assay relative to control; type: functional
SF-295 = assay: Cytotoxicity against human SF295 cells at 10 uM after 48 hrs by sulforhodamine B assay relative to control; type: functional
LOX IMVI = assay: Cytotoxicity against human LOXIMVI cells at 10 uM after 48 hrs by sulforhodamine B assay relative to control; type: functional
BT-549 = assay: Cytotoxicity against human BT549 cells at 10 uM after 48 hrs by sulforhodamine B assay relative to control; type: functional
[2] = Cytotoxicity against human Hs 578T cells at 10 uM after 48 hrs by sulforhodamine B assay relative to control; type: functional
HOP-92 = assay: Cytotoxicity against human HOP92 cells at 10 uM after 48 hrs by sulforhodamine B assay relative to control; type: functional
MOLT-4 = assay: Cytotoxicity against human MOLT4 cells at 10 uM after 48 hrs by sulforhodamine B assay relative to control; type: functional
IGROV-1 = assay: Cytotoxicity against human IGROV1 cells at 10 uM after 48 hrs by sulforhodamine B assay relative to control; type: functional
UO-31 = assay: Cytotoxicity against human UO31 cells at 10 uM after 48 hrs by sulforhodamine B assay relative to control; type: functional
MDA-MB-435 = assay: Cytotoxicity against human MDA-MB-435 cells at 10 uM after 48 hrs by sulforhodamine B assay relative to control; type: functional
HL-60(TB) = assay: Cytotoxicity against human HL-60(TB) cells at 10 uM after 48 hrs by sulforhodamine B assay relative to control; type: functional
SK-MEL-2 = assay: Cytotoxicity against human SK-MEL-2 cells at 10 uM after 48 hrs by sulforhodamine B assay relative to control; type: functional
HT-29 = assay: Cytotoxicity against human HT-29 cells at 10 uM after 48 hrs by sulforhodamine B assay relative to control; type: functional
PC-3 [3] = assay: Cytotoxicity against human PC3 cells at 10 uM after 48 hrs by sulforhodamine B assay relative to control; type: functional
HCC 2998 = assay: Cytotoxicity against human HCC2998 cells at 10 uM after 48 hrs by sulforhodamine B assay relative to control; type: functional
SF-539 = assay: Cytotoxicity against human SF539 cells at 10 uM after 48 hrs by sulforhodamine B assay relative to control; type: functional
Malme-3M = assay: Cytotoxicity against human MALME-3M cells at 10 uM after 48 hrs by sulforhodamine B assay relative to control; type: functional
UACC-62 = assay: Cytotoxicity against human UACC62 cells at 10 uM after 48 hrs by sulforhodamine B assay relative to control; type: functional
SNB-19 = assay: Cytotoxicity against human SNB19 cells at 10 uM after 48 hrs by sulforhodamine B assay relative to control; type: functional
NCI-H322M = assay: Cytotoxicity against human NCI-H322M cells at 10 uM after 48 hrs by sulforhodamine B assay relative to control; type: functional
SNB-75 = assay: Cytotoxicity against human SNB75 cells at 10 uM after 48 hrs by sulforhodamine B assay relative to control; type: functional
NCI-H23 = assay: Cytotoxicity against human NCI-H23 cells at 10 uM after 48 hrs by sulforhodamine B assay relative to control; type: functional
K562 = assay: Cytotoxicity against human K562 cells at 10 uM after 48 hrs by sulforhodamine B assay relative to control; type: functional
SK-MEL-28 = assay: Cytotoxicity against human SK-MEL-28 cells at 10 uM after 48 hrs by sulforhodamine B assay relative to control; type: functional
MDA-MB-468 = assay: Cytotoxicity against human MDA-MB-468 cells at 10 uM after 48 hrs by sulforhodamine B assay relative to control; type: functional
HCT-116 = assay: Cytotoxicity against human HCT116 cells at 10 uM after 48 hrs by sulforhodamine B assay relative to control; type: functional
SK-OV-3 = assay: Cytotoxicity against human SKOV3 cells at 10 uM after 48 hrs by sulforhodamine B assay relative to control; type: functional
NCI-H226 = assay: Cytotoxicity against human NCI-H226 cells at 10 uM after 48 hrs by sulforhodamine B assay relative to control; type: functional
OVCAR-3 = assay: Cytotoxicity against human OVCAR3 cells at 10 uM after 48 hrs by sulforhodamine B assay relative to control; type: functional
M14 = assay: Cytotoxicity against human M14 cells at 10 uM after 48 hrs by sulforhodamine B assay relative to control; type: functional
CAKI-1 = assay: Cytotoxicity against human CAKI-1 cells at 10 uM after 48 hrs by sulforhodamine B assay relative to control; type: functional
HCT-15 = assay: Cytotoxicity against human HCT15 cells at 10 uM after 48 hrs by sulforhodamine B assay relative to control; type: functional
U-251 = assay: Cytotoxicity against human U251 cells at 10 uM after 48 hrs by sulforhodamine B assay relative to control; type: functional
786-0 = assay: Cytotoxicity against human 786-0 cells at 10 uM after 48 hrs by sulforhodamine B assay relative to control; type: functional
NCI-H460 = assay: Cytotoxicity against human NCI-H460 cells at 10 uM after 48 hrs by sulforhodamine B assay relative to control; type: functional
SF-268 = assay: Cytotoxicity against human SF268 cells at 10 uM after 48 hrs by sulforhodamine B assay relative to control; type: functional
MCF7 = assay: Cytotoxicity against human MCF7 cells at 10 uM after 48 hrs by sulforhodamine B assay relative to control; type: functional

**Q.** Which Activity (COLO 205) does the source give for CCSCCC(=O)Nc1ccc2c(c1)C(=O)c1cc(NC(=O)CCSCC)ccc1-2 here?
**A.** 118.9%

**Q.** And the Activity (KM12)?
**A.** 117.91%

**Q.** What about the Activity (SW-620) of the same compound?
**A.** 116.5%

**Q.** What about the Activity (RXF 393) of the same compound?
**A.** 105.75%

**Q.** And the IC50 (PC-3 [1])?
**A.** > 30 µM

**Q.** And the Activity (RPMI-8226)?
**A.** 103.94%

**Q.** What about the Activity (CCRF-CEM) of the same compound?
**A.** 96.61%

**Q.** What about the Activity (DU-145) of the same compound?
**A.** 112.53%

**Q.** And the Activity (A549)?
**A.** 106.07%

**Q.** What about the Activity (ACHN) of the same compound?
**A.** 112.08%

**Q.** What about the Activity (HOP-62) of the same compound?
**A.** 119.93%

**Q.** What about the Activity (A498) of the same compound?
**A.** 124.53%

**Q.** What about the Activity (T47D) of the same compound?
**A.** 103.44%

**Q.** What about the inhibition (Homo sapiens) of the same compound?
**A.** inactive

**Q.** And the Activity (OVCAR-8)?
**A.** 94.28%

**Q.** And the Activity (NCI/ADR-RES)?
**A.** 103.59%

**Q.** And the Activity (OVCAR-5)?
**A.** 109.71%

**Q.** And the Activity (SN12C)?
**A.** 102.91%

**Q.** And the Activity (MDA-MB-231)?
**A.** 118.39%

**Q.** What about the Activity (NCI-H522) of the same compound?
**A.** 90.06%

**Q.** And the Activity (UACC-257)?
**A.** 113.41%

**Q.** And the Activity (SK-MEL-5)?
**A.** 108.49%

**Q.** What about the Activity (SF-295) of the same compound?
**A.** 85.58%

**Q.** What about the Activity (LOX IMVI) of the same compound?
**A.** 69.5%

**Q.** And the Activity (BT-549)?
**A.** 97.04%

**Q.** And the Activity [2]?
**A.** 109.39%

**Q.** What about the Activity (HOP-92) of the same compound?
**A.** 103.43%

**Q.** And the Activity (MOLT-4)?
**A.** 102.08%

**Q.** And the Activity (IGROV-1)?
**A.** 122.92%

**Q.** And the Activity (UO-31)?
**A.** 92.9%

**Q.** What about the Activity (MDA-MB-435) of the same compound?
**A.** 112.56%

**Q.** What about the Activity (HL-60(TB)) of the same compound?
**A.** 109.4%

**Q.** And the Activity (SK-MEL-2)?
**A.** 117.38%

**Q.** And the Activity (HT-29)?
**A.** 92.74%

**Q.** And the Activity (PC-3 [3])?
**A.** 100%

**Q.** What about the Activity (HCC 2998) of the same compound?
**A.** 107.5%

**Q.** And the Activity (SF-539)?
**A.** 86.16%

**Q.** And the Activity (Malme-3M)?
**A.** 125.15%

**Q.** And the Activity (UACC-62)?
**A.** 107.97%

**Q.** What about the Activity (SNB-19) of the same compound?
**A.** 106.91%

**Q.** What about the Activity (NCI-H322M) of the same compound?
**A.** 117.16%

**Q.** And the Activity (SNB-75)?
**A.** 92.1%

**Q.** And the Activity (NCI-H23)?
**A.** 100.62%

**Q.** What about the Activity (K562) of the same compound?
**A.** 102.87%

**Q.** And the Activity (SK-MEL-28)?
**A.** 103.35%

**Q.** What about the Activity (MDA-MB-468) of the same compound?
**A.** 109.99%

**Q.** And the Activity (HCT-116)?
**A.** 100.1%

**Q.** And the Activity (SK-OV-3)?
**A.** 110.74%

**Q.** What about the Activity (NCI-H226) of the same compound?
**A.** 104.85%

**Q.** And the Activity (OVCAR-3)?
**A.** 123.89%

**Q.** What about the Activity (M14) of the same compound?
**A.** 101.8%

**Q.** What about the Activity (CAKI-1) of the same compound?
**A.** 108.37%

**Q.** And the Activity (HCT-15)?
**A.** 104.94%

**Q.** What about the Activity (U-251) of the same compound?
**A.** 102.62%

**Q.** What about the Activity (786-0) of the same compound?
**A.** 96.11%

**Q.** What about the Activity (NCI-H460) of the same compound?
**A.** 108.3%

**Q.** What about the Activity (SF-268) of the same compound?
**A.** 122.03%

**Q.** What about the Activity (MCF7) of the same compound?
**A.** 94.51%
